Measured values: ChEMBL document CHEMBL1201862, “PubChem BioAssay data set” (2004)
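Step 1: Grow cells in 96-well plates. Step 2: Expose to compound for 48 hours at 5 concentrations. Step 3: Interpolate endpoints linearly; if unreached, use highest concentration. GI50: concentration for 50% inhibition of growth.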 Calls of active or inactive are those of the source. Cut-off read from the data, not from the text of the source: active = GI50 up to about 1.1 µM and inactive = higher.

Columns and labels:
Assay in all cases: DTP human tumour cell line panel, 48 h
[1] = system: A498
[2] = system: A549
[3] = system: BT-549
[4] = system: COLO 205
[5] = system: HCC 2998
[6] = system: HOP-62
[7] = system: HT-29
[8] = system: K562
[9] = system: Malme-3M
[10] = system: NCI-H460
[11] = system: OVCAR-3
[12] = system: OVCAR-8
[13] = system: SF-268
[14] = system: SK-MEL-2
[15] = system: SK-MEL-5
[16] = system: SN12C
[17] = system: SNB-75
[18] = system: T47D
[19] = system: UACC-257
[20] = system: UO-31

SMILES | GI50 [1] | GI50 [2] | GI50 [3] | GI50 [4] | GI50 [5] | GI50 [6] | GI50 [7] | GI50 [8] | GI50 [9] | GI50 [10] | GI50 [11] | GI50 [12] | GI50 [13] | GI50 [14] | GI50 [15] | GI50 [16] | GI50 [17] | GI50 [18] | GI50 [19] | GI50 [20]
CCOC(=O)CN1C(=O)c2cc([N+](=O)[O-])cc3cc([N+](=O)[O-])cc(c23)C1=O | > 100 µM (inactive) | > 100 µM (inactive) | > 28.6 µM (inactive) | 24.7 µM (inactive) | > 100 µM (inactive) | > 100 µM (inactive) | 34.7 µM (inactive) | 5.13 µM (inactive) | 43.5 µM (inactive) | 73.6 µM (inactive) | 23.2 µM (inactive) | 27.9 µM (inactive) | 18.4 µM (inactive) | 22.5 µM (inactive) | 27.3 µM (inactive) | 14.7 µM (inactive) | 84.3 µM (inactive) | > 100 µM (inactive) | 73.8 µM (inactive) | 28.7 µM (inactive)
CC(C)CC(=O)OC[n+]1cccc(-c2c(COC(=O)NC(C)C)c(COC(=O)NC(C)C)c3n2CCC3)c1 | 23.3 µM (inactive) | 79.1 µM (inactive) | 77.3 µM (inactive) | 70.3 µM (inactive) | > 100 µM (inactive) | 41.7 µM (inactive) | 52.6 µM (inactive) | 51.9 µM (inactive) | 83.6 µM (inactive) | 30.1 µM (inactive) | > 100 µM (inactive) | 48.8 µM (inactive) | 29 µM (inactive) | 34 µM (inactive) | 58.5 µM (inactive) | 36.9 µM (inactive) | 39.8 µM (inactive) | 51.3 µM (inactive) | > 100 µM (inactive) | 31.3 µM (inactive)
CCCCCCCCCCCCCCCC(=O)OC1C(O)C(O)C(O)C(O)C12CO2 (stereo not given) | > 100 µM (inactive) | > 100 µM (inactive) | 24.2 µM (inactive) | 36.3 µM (inactive) | 71.8 µM (inactive) | > 100 µM (inactive) | 45.4 µM (inactive) | 24.7 µM (inactive) | > 100 µM (inactive) | > 100 µM (inactive) | 24.6 µM (inactive) | 22.8 µM (inactive) | 34 µM (inactive) | 37.3 µM (inactive) | > 100 µM (inactive) | 17.5 µM (inactive) | 20.7 µM (inactive) | > 100 µM (inactive) | > 100 µM (inactive) | 68.4 µM (inactive)
COc1ccc(C(Nc2ccccn2)c2cc(C(C)(C)C)cc(C(C)(C)C)c2O)cc1 (stereo not given) | 54.8 µM (inactive) | 30 µM (inactive) | 17 µM (inactive) | 19 µM (inactive) | 12.3 µM (inactive) | 16.9 µM (inactive) | 22 µM (inactive) | 55 µM (inactive) | 10.4 µM (inactive) | 16.7 µM (inactive) | 11.4 µM (inactive) | 43.4 µM (inactive) | 5.65 µM (inactive) | 18.1 µM (inactive) | 16.3 µM (inactive) | 18.1 µM (inactive) | 13.8 µM (inactive) | 6.67 µM (inactive) | 26.2 µM (inactive) | 29.9 µM (inactive)
CCOc1cc(NC(C)=O)ccc1C(=O)NN1C(=O)/C(=C/c2ccco2)N=C1c1ccccc1 | > 100 µM (inactive) | > 100 µM (inactive) | > 100 µM (inactive) | > 100 µM (inactive) | > 100 µM (inactive) | > 100 µM (inactive) | > 100 µM (inactive) | 26.8 µM (inactive) | > 100 µM (inactive) | > 100 µM (inactive) | > 100 µM (inactive) | 41.2 µM (inactive) | > 100 µM (inactive) | > 100 µM (inactive) | 54.6 µM (inactive) | > 100 µM (inactive) | > 100 µM (inactive) | > 100 µM (inactive) | > 100 µM (inactive) | 61.7 µM (inactive)
COc1ccc(/C(CC2OC(=O)c3ccccc32)=N\NC(N)=O)cc1 (stereo not given) | > 100 µM (inactive) | > 100 µM (inactive) | > 100 µM (inactive) | > 100 µM (inactive) | > 100 µM (inactive) | > 100 µM (inactive) | > 100 µM (inactive) | > 100 µM (inactive) | > 100 µM (inactive) | > 100 µM (inactive) | > 100 µM (inactive) | > 100 µM (inactive) | > 100 µM (inactive) | > 100 µM (inactive) | > 100 µM (inactive) | > 100 µM (inactive) | > 100 µM (inactive) | > 100 µM (inactive) | > 100 µM (inactive) | > 100 µM (inactive)
CSC(=N/N=C(\C)c1ccc(S(=O)(=O)N(C)c2ccccc2)cc1)SC | > 63.8 µM (inactive) | > 100 µM (inactive) | > 50.8 µM (inactive) | > 67.1 µM (inactive) | > 100 µM (inactive) | > 62.5 µM (inactive) | > 84.9 µM (inactive) | > 53.1 µM (inactive) | > 100 µM (inactive) | > 100 µM (inactive) | > 63.4 µM (inactive) | > 100 µM (inactive) | > 66.5 µM (inactive) | > 62.2 µM (inactive) | > 100 µM (inactive) | > 66.2 µM (inactive) | > 63.1 µM (inactive) | > 60.7 µM (inactive) | > 100 µM (inactive) | > 61.5 µM (inactive)
O=[N+]([O-])c1cc(Cl)ccc1S(=O)(=O)c1ccccc1 | > 100 µM (inactive) | > 100 µM (inactive) | 60.7 µM (inactive) | 70 µM (inactive) | > 100 µM (inactive) | 39.7 µM (inactive) | 74.6 µM (inactive) | 65.6 µM (inactive) | 52.8 µM (inactive) | > 100 µM (inactive) | > 100 µM (inactive) | > 100 µM (inactive) | 83.6 µM (inactive) | 17.3 µM (inactive) | 49.2 µM (inactive) | > 100 µM (inactive) | 30.8 µM (inactive) | 66.7 µM (inactive) | 34 µM (inactive) | > 100 µM (inactive)
CN(N)/N=N/c1[nH]cnc1[N+](=O)[O-] | > 100 µM (inactive) | > 100 µM (inactive) | > 100 µM (inactive) | > 100 µM (inactive) | > 100 µM (inactive) | > 100 µM (inactive) | > 100 µM (inactive) | 19.6 µM (inactive) | > 100 µM (inactive) | > 100 µM (inactive) | > 100 µM (inactive) | 28.4 µM (inactive) | 42.9 µM (inactive) | > 100 µM (inactive) | > 100 µM (inactive) | 31.8 µM (inactive) | > 100 µM (inactive) | 20.6 µM (inactive) | > 100 µM (inactive) | 61.1 µM (inactive)
Nc1cccc(OCC2CCCN3CCCCC23)c1 (stereo not given) | 14.4 µM (inactive) | 21.4 µM (inactive) | 17.1 µM (inactive) | 19.5 µM (inactive) | 13.7 µM (inactive) | 16.2 µM (inactive) | 12.6 µM (inactive) | 22 µM (inactive) | 23.5 µM (inactive) | 19 µM (inactive) | 16.9 µM (inactive) | 18.7 µM (inactive) | 20.1 µM (inactive) | 20.1 µM (inactive) | 18.9 µM (inactive) | 16.7 µM (inactive) | 16.7 µM (inactive) | 17.8 µM (inactive) | 19 µM (inactive) | 27.2 µM (inactive)
NC1=NCC(CN2CCCC2)O1 (stereo not given) | > 100 µM (inactive) | > 100 µM (inactive) | > 100 µM (inactive) | > 100 µM (inactive) | > 100 µM (inactive) | > 100 µM (inactive) | > 100 µM (inactive) | > 100 µM (inactive) | > 100 µM (inactive) | > 100 µM (inactive) | > 100 µM (inactive) | > 100 µM (inactive) | > 100 µM (inactive) | > 100 µM (inactive) | > 100 µM (inactive) | > 100 µM (inactive) | > 100 µM (inactive) | > 100 µM (inactive) | > 100 µM (inactive) | > 100 µM (inactive)
CC(C)(C)OC(=O)N(O)[C@@H]1CC[C@H](n2cnc3c(N)ncnc32)C1 | > 100 µM (inactive) | > 100 µM (inactive) | > 100 µM (inactive) | > 100 µM (inactive) | > 100 µM (inactive) | > 100 µM (inactive) | > 100 µM (inactive) | > 100 µM (inactive) | > 100 µM (inactive) | > 100 µM (inactive) | > 100 µM (inactive) | > 100 µM (inactive) | > 100 µM (inactive) | > 100 µM (inactive) | > 100 µM (inactive) | > 100 µM (inactive) | > 100 µM (inactive) | > 100 µM (inactive) | > 100 µM (inactive) | 96.8 µM (inactive)
CC(C)NC(=O)OCc1c(COC(=O)NC(C)C)n(C)c2c1ccc1ccccc12 | 1.57 µM (inactive) | 9.98 µM (inactive) | 0.398 µM (active) | 1.84 µM (inactive) | 2.88 µM (inactive) | 4.75 µM (inactive) | 3.34 µM (inactive) | 0.171 µM (active) | 0.877 µM (active) | 2.53 µM (inactive) | 2.97 µM (inactive) | 1.8 µM (inactive) | 1.9 µM (inactive) | 1.78 µM (inactive) | 2.34 µM (inactive) | 2.02 µM (inactive) | 1.83 µM (inactive) | 0.247 µM (active) | 1.52 µM (inactive) | 1.9 µM (inactive)
Cn1c(=O)c2sc3c4sc5c(=O)n(C)c6ccccc6c5c4sc3c2c2ccccc21 | > 100 µM (inactive) | > 100 µM (inactive) | > 100 µM (inactive) | > 100 µM (inactive) | > 100 µM (inactive) | 46.5 µM (inactive) | > 100 µM (inactive) | > 100 µM (inactive) | > 100 µM (inactive) | > 100 µM (inactive) | > 100 µM (inactive) | > 100 µM (inactive) | > 100 µM (inactive) | > 100 µM (inactive) | > 100 µM (inactive) | > 100 µM (inactive) | 42.6 µM (inactive) | > 100 µM (inactive) | > 100 µM (inactive) | > 100 µM (inactive)
